Values of other authors as cited in patent publication US8461106B2, “Biofilm prevention using lactoferrin” (The Trustees of the University of Pennsylvania, priority 2007, dated 2013).

System: pseudomonas biofilms

gentamicin
MBEC for pseudomonas biofilms relative to MIC for planktonic pseudomonas: 60 fold
